Reference: US10975080B2, “Compounds and compositions for inhibiting the activity of SHP2” (NOVARTIS AG, priority 2015, dated 2021)

Target: SHP2 (Homo sapiens (Human), UniProt Q06124)
Assay: SHP2 Allosteric Inhibition Assay
Type: biochemical
Details: 0.5 nM SHP2 with 0.5 μM peptide IRS1_pY1172(dPEG8)pY1222; surrogate substrate DiFMUP; 25° C.; read-out: SHP2 IC50
Outline: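 Phosphatase activity of bis-tyrosyl-phosphopeptide-activated SHP2 was read by prompt fluorescence from DiFMUP turnover. After 30–60 min preincubation at 25 °C, DiFMUP was added for 30 min at 25 °C. IC50s came from control-normalized dose-response fitting.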

SMILES	IC50 [nM]
C[C@H]1C[C@@H](N)C2(CCN(c3nc4[nH]nc(-c5ccnc(N)c5Cl)c4c(=O)n3C)CC2)C1 [Example 76, 3-(2-amino-3-chloropyridin-4-yl)-6-((1R,3R)-1-amino-3-methyl-8-azaspiro[4.5]decan-8-yl)-5-methyl-1,5-dihydro-4H-pyrazolo[3,4-d]pyrimidin-4-one]	32
C[C@@H]1OCC2(CCN(c3nc4[nH]nc(-c5cc(Cl)ncc5Cl)c4c(=O)n3C)CC2)[C@@H]1N [Example 79, 6-((3S,4S)-4-amino-3-methyl-2-oxa-8-azaspiro[4.5]decan-8-yl)-3-(2,5-dichloropyridin-4-yl)-5-methyl-1,5-dihydro-4H-pyrazolo[3,4-d]pyrimidin-4-one]	30
C[C@@H]1OCC2(CCN(c3nc4[nH]nc(-c5cc(N)ncc5Cl)c4c(=O)n3C)CC2)[C@@H]1N [Example 80, 6-((3S,4S)-4-amino-3-methyl-2-oxa-8-azaspiro[4.5]decan-8-yl)-3-(2-amino-5-chloropyridin-4-yl)-5-methyl-1,5-dihydro-4H-pyrazolo[3,4-d]pyrimidin-4-one]	129
C[C@@H]1OCC2(CCN(c3cnc4c(-c5ccnc(Cl)c5Cl)n[nH]c4n3)CC2)[C@@H]1N [Example 85, (3S,4S)-8-(3-(2,3-dichloropyridin-4-yl)-1H-pyrazolo[3,4-b]pyrazin-6-yl)-3-methyl-2-oxa-8-azaspiro[4.5]decan-4-amine]	67

Further molecules by falling IC50, results first:

IC50 [nM]	SMILES
30	CNc1nccc(-c2n[nH]c3nc(N4CCC5(CC4)C[C@@H](C)C[C@H]5N)n(C)c(=O)c23)c1Cl [Example 77, 6-((1R,3R)-1-amino-3-methyl-8-azaspiro[4.5]decan-8-yl)-3-(3-chloro-2-(methylamino)pyridin-4-yl)-5-methyl-1,5-dihydro-4H-pyrazolo[3,4-d]pyrimidin-4-one]
27	C[C@@H]1OCC2(CCN(c3nc4[nH]nc(Sc5ccnc(N)c5Cl)c4c(=O)n3C)CC2)[C@@H]1N [Example 84, 3-((2-amino-3-chloropyridin-4-yl)thio)-6-((3S,4S)-4-amino-3-methyl-2-oxa-8-azaspiro[4.5]decan-8-yl)-5-methyl-1,5-dihydro-4H-pyrazolo[3,4-d]pyrimidin-4-one]
17	Cc1c(-c2n[nH]c3nc(N4CCC5(CC4)CO[C@@H](C)[C@H]5N)n(C)c(=O)c23)ccnc1Cl [Example 78, 6-((3S,4S)-4-amino-3-methyl-2-oxa-8-azaspiro[4.5]decan-8-yl)-3-(2-chloro-3-methylpyridin-4-yl)-5-methyl-1,5-dihydro-4H-pyrazolo[3,4-d]pyrimidin-4-one]
8	Cn1c(N2CCC(C)(CN)CC2)nc2[nH]nc(Sc3cccc(Cl)c3Cl)c2c1=O [Example 83, 6-(4-(aminomethyl)-4-methylpiperidin-1-yl)-3-((2,3-dichlorophenyl)thio)-5-methyl-1,5-dihydro-4H-pyrazolo[3,4-d]pyrimidin-4-one]
